Reference: US8592374B2, “Neurotrophic peptides” (Research Foundation for Mental Hygiene, Inc., priority 2007, dated 2013)
“Also recorded” adds a separate entry of the source. Peptide text beside a SMILES is read from it. * marks the point of attachment. X1 = NC(=O)C12CC3CC(CC(N*)(C3)C1)C2

What was measured:
normal adult mice [1] = assay: Spatial reference memory task in the water maze; format: in vivo
Procedure: (§1) For the compound treatment, mice (8 animals/group) received subcutaneous implants of extended release depot pellets containing P21 or P22 at 25 nmol/day for 35 days of continuous dosing (Innovative Research of America, USA). For the control group (8 animals), pellets consisted of the carrier polymer only. Mice were anesthetized with 2.5% Avertin (0.38 ml for a 25 g animal). Under sterile conditions, pellets were implanted subcutaneously along the anterolateral aspect of the right shoulder with a precision trochar (Innovative Research of America). After recovery of anesthesia, animals were transferred to the animal colony. No complications associated with the implantation and treatment were observed. All procedures on animals were conducted in accordance with approved protocols from our Institutional Animal Welfare Committee.
Spatial reference learning and memory were evaluated in the water maze using a procedure adapted from that previously described by Morris et al. (Morris, R. G., et al. Nature 297 (1982): 681-3). The test required that mice used a spatial navigational strategy based on a spatial representation of the environment to find a fixed submerged escape platform. The procedure was performed in a 180 cm diameter circular tank. The pool was filled with water (21±1° C.) made opaque by adding white non-toxic paint. Acquisition started with the escape platform (15 cm diameter submerged 1 cm below water surface) in the Northwest quadrant and each animal was given 90 s to find the platform. […] At the end of each trial, the mouse was left on the platform for 20 seconds, then dried and returned to its home cage until the next trial. Five such acquisition trials were given on each day for four consecutive days. A test for retention, or probe trial (PT), was given 24 hours later. During the probe trial the mouse was allowed to swim in the tank without the escape platform for 60 seconds. This was followed by second and third probe trials 15 and 30 days after the first probe trial.
The measures of learning were the time and distance covered to reach the escape platform. For the probe trial, the tank was divided into four imaginary quadrants and a small zone where the escape platform had been. The measure of retention was calculated as the ratio of time spent or distance covered in target quadrant over that in the three other quadrants.
Mouse behavior in the water maze was monitored by a Samsung Digital Camera (SDC 4304) mounted to the ceiling and tracked and timed by a SMART (Pan Lab/San Diego Instruments) version 2.0.14 software.

normal adult mice [2] = assay: One-trial object recognition test; format: in vivo; conditions: 25 nmol/day
Procedure: as §1
In the one-trial object recognition task, animals are exposed to two different objects which they have to identify as novel or familiar based on the memory of an earlier experience with one of the two objects they encountered in the same open field. The familiar object is explored shorter than the novel encountered one because the representation of the former is still available in memory. The one-trial object recognition task tests some aspects of episodic memory but is limited to memory of an object (what), the location of an object (where), and the context in which it was encountered (which). However, the temporal dimension of the episode remains inaccessible to the experimentator, and because of this reason this task in animals is considered a test of short term memory.
The test used was an adaptation of the procedure previously described by Sargolini and collaborators (Sargolini, F., et al. Behav Brain Res 138 (2003):153-63). The testing apparatus was a classic open field (i.e. a PVC square arena, 50×50 cm, with walls 40 cm high). […] Object discrimination was calculated as follows: OD=(time spent close to new object)/(time spent close to new object)+(time spent close to old object)×100

[3] = system: adult hippocampal progenitors in the dentate gyrus; assay: Neurogenesis in the DG (BrdU-positive and BrdU/NeuN-double-positive cells); format: in vivo, mice; conditions: 25 nmol/day for 35 days
Procedure: as §1
To investigate neurogenesis, BrdU (Sigma, USA) was given as two daily i.p. injections (100 mg/kg/dose) for five days starting on day 2 of compounds treatment.
At the end of the behavioral experiment, animals were anesthetized with an overdose of sodium pentobarbital (120 mg/kg) and transcardially perfused with 0.1 M phosphate buffered saline (PBS). After perfusion, the brains were removed from the skull, the left hemisphere was immediately frozen for future biochemical analysis and the right hemisphere was immersion fixed in 4% paraformaldehyde in 0.1 M PBS for at least 24 hours at room temperature. Tissues were equilibrated and stored in 30% sucrose solution at 4° C. until sectioning. The brains were sectioned sagittaly on a freezing sliding microtome at 40 μm through the entire hippocampus and the sections were stored in glycol anti-freeze solution (Ethylene glycol, glycerol and 0.1 M PBS in 3:3:4 ratio) at −20° C. until further processing.
For double labeling of BrdU and NeuN, brain sections were pretreated with 2 M HCl at 37° C. for 30 min and neutralized with 0.1 M borate buffer (pH 8.5) for 10 minutes. […]
Neurogenesis in the dentate gyrus was evaluated by counting the number of BrdU-positive and BrdU/NeuN-double-positive cells in the dentate gyrus (DG). The number of positive cells was determined in every fifth section in a series of 40 μm sagittal sections throughout the DG using unbiased sterology. All BrdU-positive cells in the subgranular zone (SGZ) and granule cell layer (GCL) were counted using a fluorescent microscope (Nikon Eclipse 90i, Nikon Corporation, Japan). Double labeled cells were assessed by a confocal imaging system (D-Eclipse C1, Nikon Corporation). […] For each brain, at least 100 cells were counted based on coefficient of error determinations.

## CC(=O)N[C@@H](CC(=O)O)C(=O)NCC(=O)NCC(=O)N[C@@H](CC(C)C)C(=O)NC12CC3CC(C1)CC(C(N)=O)(C3)C2 [Peptide P21, Ac-DGGL^AG-NH2] (Ac-DGGL-X1)
Normal adult mice [1]; 15 and 30 days after the end of the treatment
  time in the target quadrant, probe trials PT2 and PT3: beneficial effect disappeared; also recorded: showed no effect
Normal adult mice [1]; 24 hours after last day of training
  time in the target quadrant, first probe trial: focus significantly more on the target quadrant; also recorded: improved performance in the first probe trial
Normal adult mice [1]; training day 2 to 4, compared to control group
  escape latencies to reach the submerged platform (learning): significantly reduced; also recorded: increased performance in the learning of spatial memory task
Normal adult mice [2]; compared to other groups
  percentage of discrimination (object discrimination): significantly increased; also recorded: significantly improved the ability to discriminate a new object
Normal adult mice [2]; test phase after 15 minute delay
  time exploring the new object versus the familiar object: clearly spent more time exploring the new object
[3]
  BrdU positive cells in the DG (GCL and SGZ): significantly increased; also recorded: significant increase
  BrdU/NeuN positive cells in the DG (GCL): significantly increased; also recorded: significant increase
